Experimental data published in patent US8445006B2, “Biomolecular coating for implants” (Georgia Tech Research Corporation, priority 2006, dated 2013).

What was measured:
[1] = test system: MC3T3-E1 cells; assay: Centrifugation cell adhesion assay on ligand-tethered SAMs; type: cell-based, murine; settings: for ADH50 (ligand density required for half-maximal adhesion): ligand tethered to SAMs, MC3T3-E1
Experimental: MC3T3-E1 murine immature osteoblast-like cells (Riken Cell Bank, Hirosawa, Japan) were used because of their expression of multiple integrins, including alpha5beta1, alpha2beta1, and alphaVbeta3. Cells were maintained at 37° C. in α-MEM supplemented with 10% FBS and 1% penicillin-streptomycin and passaged every 2-3 days via standard culture techniques.
Self-assembled monolayers (SAMs) of alkanethiols on gold were used to present well-defined, ordered surfaces with anchoring groups within a non-fouling background. Tri(ethylene glycol)-terminated alkanethiol (HS—(CH2)11—(OCH2CH2)3—OH; EG3) and carboxylic acid-terminated alkanethiol (HS—(CH2)11—(OCH2CH2)6—OCH2COOH; EG6-COOH) were previously synthesized and characterized. Gold-coated substrates were prepared by sequential deposition of titanium (100 Å) and gold (200 Å) films via an electron beam evaporator (Thermionics Laboratories, Hayward, Calif., 2×10^−6 Torr, 1 A/s) onto clean 6-well plate lids or glass coverslips. Mixed SAM surfaces were prepared on substrates by immersing in a 1.0 mM mixed solution of EG3/EG6-COOH thiols (4 h). Peptide ligands were tethered using standard peptide chemistry. Briefly, following washing in ethanol and ultrapure H2O, SAMs were incubated in 2.0 mM EDC and 5.0 mM NHS in 0.1 M 2-(N-morpho)-ethanesulfonic acid and 0.5 M NaCl (pH 6.0), and subsequently immersed in a 20 mM solution of 2-mercaptoethanol in deionized H2O. Adhesive ligands in PBS were then incubated on the activated supports for 30 min and the unreacted surface NHS esters were then quenched in 20 mM glycine. Finally, the surfaces were blocked in 1% heat-denatured bovine serum albumin (BSA) and then incubated overnight in DPBS to reduce nonspecific protein adsorption.
A modification of a centrifugation assay was used to apply controlled detachment forces to cells adhering to engineered surfaces. Multi-wells of engineered surfaces were created on gold-coated polystyrene plate lids using silicone gaskets (Grace Bio-Labs, Bend, Oreg.). Mixed SAMs were assembled and ligands tethered at varying densities. MC3T3-E1 cells were labeled with […] calcein-AM, a membrane-permeable green fluorescent dye, in 2 mM dextrose-DPBS for 30 min and resuspended in α-MEM with 10% FBS. Cells were seeded onto the surfaces at 200 cells/mm^2, and allowed to attach for 1 h at 37° C. For blocking antibody experiments, cells were incubated in the presence of function-perturbing antibodies (10 μg/ml) for 10 min with gentle agitation prior to cell seeding. Before centrifugation, cell images were taken using a Nikon TE-300 fluorescence microscope and Spot RT digital camera. Wells were then filled completely with dextrose-PBS, sealed, inverted, and centrifuged for 5 min at a prescribed speed on a Beckman Allegra 6 centrifuge (GH 3.8 rotor) to apply normal detachment forces. Media was then gently aspirated from the wells, and wells were refilled for post-spin image collection. Post/pre-spin cell ratios were determined by image analysis, and this adhesive fraction was plotted against ligand surface density to obtain cell adhesion profiles.

[2] = test system: FAK; assay: FAK phosphorylation on ligand-tethered brush surfaces with integrin blocking antibodies; type: cell-based, rat; settings: for effect of integrin blocking antibodies on FAK phosphorylation: anti-α5 and anti-β3 antibodies
Experimental: Cells were detached and gently agitated in serum-free suspension for 45 min to reduce background. Cells were then seeded at 200 cells/mm^2 serum-free for 1 h. Cells were lysed in RIPA buffer (1% Triton X-100, 1% sodium deoxycholate, 0.1% SDS, 150 mM NaCl, 150 mM Tris-HCl (pH 7.2), 350 μg/ml PMSF, 10 μg/ml leupeptin, and 10 μg/ml aprotonin) for 20 min on ice. Samples were pipetted up and down 20 times and centrifuged at 8000 g for 10 min to shear DNA and isolate protein contents. Total protein was quantified using micro-BCA (Pierce). Equal amounts of protein were boiled for 10 min in Laemmli buffer and separated by SDS-PAGE on a 7% gel, transferred to nitrocellulose membranes, and blocked with Blotto (5% nonfat dry milk, 0.20% Tween-20) overnight at 4° C. Membranes were gently rocked in antibodies against FAK and specific phosphorylated FAK tyrosine residues (anti-total FAK at 1 μg/ml, anti-FAK pY397 at 0.35 μg/ml, anti-FAK pY576 at 0.5 μg/ml) for 1 h. After washing with TBS-Tween (20 mM Tris HCl pH 7.6, 137 mM NaCl, 0.1% Tween-20), secondary antibody (biotin-conjugated anti-rabbit IgG; 1:20,000) was added for 1 h, followed by alkaline phosphatase-conjugated anti-biotin antibody (1:10,000) in Blotto. Immunoreactivity was assessed by ECF fluorescent substrate. FAK bands were visualized by a Fuji Image Analyzer and phosphorylation levels normalized to total FAK.
FAK is an intracellular signaling molecule involved in integrin-mediated signal transduction and the osteogenic differentiation pathway. Phosphotyrosine-specific antibodies were used to examine the activation state of three important tyrosines in FAK: Y397 (autophosphorylation site), Y576 (essential for maximal kinase activity), and Y861 (major Src phosphorylation site) (FIG. 13C). […] These differences in integrin binding specificity and FAK activation modulate cell signaling pathways and higher order cellular activities.

[3] = maximum ligand density, normalized to unblocked controls
[4] = vs RGD-functionalized brushes and serum-exposed titanium

FNIII7-10: monobiotinylated recombinant fibronectin fragment spanning the 7-10th type III repeats of fibronectin; α5β1 integrin ligand
ADH50 (ligand density required for half-maximal adhesion) [1]: 70 fmol/cm^2
adhesion with blocking antibodies against α5β1 integrin [1, 3]: reduced adhesion to background levels
reduction of adhesion by antibodies against β3 integrin subunit [1, 3]: did not alter adhesion significantly
effect of integrin blocking antibodies on FAK phosphorylation [2]: blocking antibodies against α5, but not β3, reduced the levels of phospho-Y397 and Y576
FAK Y397 phosphorylation [2, 4]: higher phosphorylation levels
FAK Y576 phosphorylation [2, 4]: higher phosphorylation levels

GRGDSPC [RGD peptide, linear RGD oligopeptide purchased from BACHEM; primarily supports αvβ3-mediated adhesion, reference compound]
ADH50 (ligand density required for half-maximal adhesion) [1]: 2300 fmol/cm^2
adhesion with blocking antibodies against α5β1 integrin [1, 3]: only slightly reduced adhesion
effect of integrin blocking antibodies on FAK phosphorylation [2]: only the anti-β3 antibody reduced FAK phosphorylation
FAK Y861 phosphorylation ([2]; relative to FNIII7-10-tethered surface): elevated
